Measurements: publication PMC5218480 (PLoS ONE, 2017)

Tested on: MV-4-11 cells
Experiment: Gene expression microarray analysis (Affymetrix PrimeView) and GSEA
Assay type: cell-based, human
Parameters: RFU PODN (11730768_x_at) / Fold change /veh PODN (11730768_x_at) / RFU LINC00158 (11744669_a_at) / Fold change /veh LINC00158 (11744669_a_at) / RFU DUSP10 (11751237_a_at) / Fold change /veh DUSP10 (11751237_a_at) / RFU ID3 (11757404_x_at) / Fold change /veh ID3 (11757404_x_at) / RFU PLEKHG5 (11737974_s_at) / Fold change /veh PLEKHG5 (11737974_s_at) / RFU LRRC4B (11730491_at) / Fold change /veh LRRC4B (11730491_at) / RFU GIMAP4 (11747438_a_at) / Fold change /veh GIMAP4 (11747438_a_at) / RFU KRT8 (11758183_x_at) / Fold change /veh KRT8 (11758183_x_at) / RFU CNN1 (11734310_a_at) / Fold change /veh CNN1 (11734310_a_at) / RFU VPS37D (11726825_at) / Fold change /veh VPS37D (11726825_at) / RFU C10orf10 (11716522_x_at) / Fold change /veh C10orf10 (11716522_x_at) / RFU KIR2DL2 /// KIR2DL4 /// KIR2DL5A /// KIR2DL5B /// KIR2DS1 /// KIR2DS2 /// KIR2DS3 /// KIR2DS4 /// KIR3DL3 /// KIR3DL3 /// KIR3DS1 (11738374_at) / Fold change /veh KIR2DL2 /// KIR2DL4 /// KIR2DL5A /// KIR2DL5B /// KIR2DS1 /// KIR2DS2 /// KIR2DS3 /// KIR2DS4 /// KIR3DL3 /// KIR3DL3 /// KIR3DS1 (11738374_at) / RFU C1QL1 (11718748_at) / Fold change /veh C1QL1 (11718748_at) / RFU TMPRSS4 (11747572_a_at) / Fold change /veh TMPRSS4 (11747572_a_at) / RFU HAMP (11756126_x_at) / Fold change /veh HAMP (11756126_x_at) / RFU RNFT2 (11725882_a_at) / Fold change /veh RNFT2 (11725882_a_at) / RFU NR4A2 (11747474_a_at) / Fold change /veh NR4A2 (11747474_a_at) / RFU ABCC12 (11746883_a_at) / Fold change /veh ABCC12 (11746883_a_at) / RFU TMEM136 (11760407_x_at) / Fold change /veh TMEM136 (11760407_x_at) / RFU CLDN22 /// WWC2 (11732394_at) / Fold change /veh CLDN22 /// WWC2 (11732394_at) / RFU HLA-DPB1 (11760878_x_at) / Fold change /veh HLA-DPB1 (11760878_x_at) / RFU SPINT1 (11716480_a_at) / Fold change /veh SPINT1 (11716480_a_at) / RFU GAP43 (11754022_s_at) / Fold change /veh GAP43 (11754022_s_at) / RFU A4GNT (11735810_at) / Fold change /veh A4GNT (11735810_at) / RFU PRB3 (11715151_x_at) / Fold change /veh PRB3 (11715151_x_at) / RFU TUBB4B (11761932_at) / Fold change /veh TUBB4B (11761932_at) / RFU CAPN14 (11732068_a_at) / Fold change /veh CAPN14 (11732068_a_at) / RFU TMCC2 (11721928_a_at) / Fold change /veh TMCC2 (11721928_a_at) / RFU IRGQ (11745062_a_at) / Fold change /veh IRGQ (11745062_a_at) / RFU FAM174B (11720279_a_at) / Fold change /veh FAM174B (11720279_a_at) / RFU TMPRSS4 (11748680_a_at) / Fold change /veh TMPRSS4 (11748680_a_at) / RFU FAM212B (11763350_a_at) / Fold change /veh FAM212B (11763350_a_at) / RFU PLEKHG5 (11743358_a_at) / Fold change /veh PLEKHG5 (11743358_a_at) / RFU ZSCAN30 (11745921_a_at) / Fold change /veh ZSCAN30 (11745921_a_at) / RFU CMKLR1 (11741424_a_at) / Fold change /veh CMKLR1 (11741424_a_at) / RFU LOC101060620 /// MAPK8IP1 (11723275_at) / Fold change /veh LOC101060620 /// MAPK8IP1 (11723275_at) / RFU SPTSSB (11747773_x_at) / Fold change /veh SPTSSB (11747773_x_at) / RFU PRSS12 (11739890_at) / Fold change /veh PRSS12 (11739890_at) / RFU BIN1 (11741810_x_at) / Fold change /veh BIN1 (11741810_x_at) / RFU WNT11 (11732464_a_at) / Fold change /veh WNT11 (11732464_a_at) / RFU C10orf10 (11716521_a_at) / Fold change /veh C10orf10 (11716521_a_at) / RFU C5orf56 (11738089_at) / Fold change /veh C5orf56 (11738089_at) / RFU CYB561 (11721691_x_at) / Fold change /veh CYB561 (11721691_x_at) / RFU ANKRD19P (11752326_a_at) / Fold change /veh ANKRD19P (11752326_a_at) / RFU OR2T12 /// OR2T33 /// OR2T8 (11738714_s_at) / Fold change /veh OR2T12 /// OR2T33 /// OR2T8 (11738714_s_at) / RFU VCAN (11748164_a_at) / Fold change /veh VCAN (11748164_a_at) / RFU JSRP1 (11732532_at) / Fold change /veh JSRP1 (11732532_at) / RFU KRTAP10-11 (11738290_x_at) / Fold change /veh KRTAP10-11 (11738290_x_at) / RFU MYO3A (11730013_a_at) / Fold change /veh MYO3A (11730013_a_at) / RFU EBF3 (11725865_a_at) / Fold change /veh EBF3 (11725865_a_at) / RFU CAMK2N1 (11719241_x_at) / Fold change /veh CAMK2N1 (11719241_x_at) / RFU C5orf56 (11738088_a_at) / Fold change /veh C5orf56 (11738088_a_at) / RFU OLFML3 (11715873_a_at) / Fold change /veh OLFML3 (11715873_a_at) / RFU LOC100653217 /// NTM (11731650_a_at) / Fold change /veh LOC100653217 /// NTM (11731650_a_at) / RFU MAPK11 (11762145_a_at) / Fold change /veh MAPK11 (11762145_a_at) / RFU FIZ1 (11724087_x_at) / Fold change /veh FIZ1 (11724087_x_at) / RFU OASL (11726364_x_at) / Fold change /veh OASL (11726364_x_at) / RFU SOX15 (11748057_x_at) / Fold change /veh SOX15 (11748057_x_at) / RFU CD79A (11719716_a_at) / Fold change /veh CD79A (11719716_a_at) / RFU HIST1H1D (11736915_at) / Fold change /veh HIST1H1D (11736915_at) / RFU CASKIN2 (11723855_a_at) / Fold change /veh CASKIN2 (11723855_a_at) / RFU LOC730098 (11760151_x_at) / Fold change /veh LOC730098 (11760151_x_at) / RFU OR4N2 (11742367_at) / Fold change /veh OR4N2 (11742367_at) / RFU PRRT2 (11749266_a_at) / Fold change /veh PRRT2 (11749266_a_at) / RFU SNX32 (11753110_a_at) / Fold change /veh SNX32 (11753110_a_at) / RFU CDHR5 (11726645_a_at) / Fold change /veh CDHR5 (11726645_a_at) / RFU RCAN1 (11760418_a_at) / Fold change /veh RCAN1 (11760418_a_at) / RFU FAM167A (11723789_a_at) / Fold change /veh FAM167A (11723789_a_at) / RFU FAM26E (11764081_at) / Fold change /veh FAM26E (11764081_at) / RFU ISYNA1 (11749810_s_at) / Fold change /veh ISYNA1 (11749810_s_at) / RFU ACY1 (11761880_at) / Fold change /veh ACY1 (11761880_at) / RFU 11764098_at / Fold change /veh 11764098_at / RFU SAMD14 (11745864_x_at) / Fold change /veh SAMD14 (11745864_x_at) / RFU NPB (11741838_a_at) / Fold change /veh NPB (11741838_a_at) / RFU TMPRSS6 (11731388_a_at) / Fold change /veh TMPRSS6 (11731388_a_at) / RFU KRTAP10-2 (11738614_at) / Fold change /veh KRTAP10-2 (11738614_at) / RFU ARHGAP8 /// PRR5-ARHGAP8 (11727945_x_at) / Fold change /veh ARHGAP8 /// PRR5-ARHGAP8 (11727945_x_at) / RFU KRTAP5-7 /// NADSYN1 (11734609_at) / Fold change /veh KRTAP5-7 /// NADSYN1 (11734609_at) / RFU RASL12 (11751679_a_at) / Fold change /veh RASL12 (11751679_a_at) / RFU CDKN2B (11736163_a_at) / Fold change /veh CDKN2B (11736163_a_at) / RFU PRF1 (11729649_at) / Fold change /veh PRF1 (11729649_at) / RFU, ZNF638 /// ZNF638-IT1 / Fold change vs veh, ZNF638 /// ZNF638-IT1 / RFU, PANK3 / Fold change vs veh, PANK3 / RFU, SH3YL1 / Fold change vs veh, SH3YL1 / RFU, ZEB2 / Fold change vs veh, ZEB2 / RFU, NRIP1 / Fold change vs veh, NRIP1 / RFU, PTTG1IP / Fold change vs veh, PTTG1IP / RFU, CAPN2 / Fold change vs veh, CAPN2 / RFU, MED14 / Fold change vs veh, MED14 / RFU, SNORA58 / Fold change vs veh, SNORA58 / RFU, C1orf63 / Fold change vs veh, C1orf63 / RFU, LRRFIP1 / Fold change vs veh, LRRFIP1 / RFU, NDUFAF7 / Fold change vs veh, NDUFAF7 / RFU, SLC12A2 / Fold change vs veh, SLC12A2 / RFU, IBTK / Fold change vs veh, IBTK / RFU, ESF1 / Fold change vs veh, ESF1 / Fold change vs veh, TMEM50B / RFU, TAOK1 / Fold change vs veh, TAOK1 / RFU, ACBD3 / Fold change vs veh, ACBD3 / RFU, TMA16 / Fold change vs veh, TMA16 / RFU, RWDD3 / Fold change vs veh, RWDD3 / RFU, BCAT1 / Fold change vs veh, BCAT1 / RFU, EDEM3 / Fold change vs veh, EDEM3 / RFU, TMEM33 / Fold change vs veh, TMEM33 / RFU, WDR75 / Fold change vs veh, WDR75 / RFU, AHCTF1 / Fold change vs veh, AHCTF1 / RFU, TFRC / Fold change vs veh, TFRC / RFU, ZDHHC17 / Fold change vs veh, ZDHHC17 / RFU, NOM1 / Fold change vs veh, NOM1 / RFU, ARL8B / Fold change vs veh, ARL8B / RFU, ZBTB11 / Fold change vs veh, ZBTB11 / RFU, TAMM41 / Fold change vs veh, TAMM41 / RFU, KIAA1704 /// LOC100996395 / Fold change vs veh, KIAA1704 /// LOC100996395 / RFU, ING1 / Fold change vs veh, ING1 / RFU, TRMT61B / Fold change vs veh, TRMT61B / RFU, FUBP3 / Fold change vs veh, FUBP3 / RFU, TP53 / Fold change vs veh, TP53 / RFU, TNKS2 / Fold change vs veh, TNKS2 / RFU, ZFP14 / Fold change vs veh, ZFP14 / RFU, ACTR2 / Fold change vs veh, ACTR2 / RFU, PPP3R1 / Fold change vs veh, PPP3R1 / RFU, PIK3R1 / Fold change vs veh, PIK3R1 / RFU, HNRNPA1 / Fold change vs veh, HNRNPA1 / RFU, RNF170 / Fold change vs veh, RNF170 / RFU, ZNF28 / Fold change vs veh, ZNF28 / RFU, RNGTT / Fold change vs veh, RNGTT / RFU, OGT / Fold change vs veh, OGT / RFU, BRD1 / Fold change vs veh, BRD1 / RFU, MARS / Fold change vs veh, MARS / RFU, ZNF655 / Fold change vs veh, ZNF655 / RFU, FAHD1 / Fold change vs veh, FAHD1 / RFU, BDP1 / Fold change vs veh, BDP1 / RFU, LRRCC1 / Fold change vs veh, LRRCC1 / RFU, ARID1A / Fold change vs veh, ARID1A / RFU, ZNF146 / Fold change vs veh, ZNF146 / RFU, ZNF330 / Fold change vs veh, ZNF330 / RFU, GPN3 / Fold change vs veh, GPN3 / RFU, C9orf123 / Fold change vs veh, C9orf123 / RFU, N4BP2L2 / Fold change vs veh, N4BP2L2 / RFU, ARFIP1 / Fold change vs veh, ARFIP1 / RFU, FAM179B / Fold change vs veh, FAM179B / RFU, BCL10 / Fold change vs veh, BCL10 / RFU, UHRF1BP1L / Fold change vs veh, UHRF1BP1L / RFU, BET1 / Fold change vs veh, BET1 / RFU, CNOT2 / Fold change vs veh, CNOT2 / RFU, ZNF268 / Fold change vs veh, ZNF268 / Fold change vs veh, ZNF507 / RFU, DGCR2 / Fold change vs veh, DGCR2 / RFU, WDSUB1 / Fold change vs veh, WDSUB1 / Fold change vs veh, HSP90B1 /// MIR3652 / RFU, ADSS / Fold change vs veh, ADSS / RFU, GK / Fold change vs veh, GK / RFU, ZNF148 / Fold change vs veh, ZNF148 / RFU, TAF9 / Fold change vs veh, TAF9 / RFU, SLC1A5 / Fold change vs veh, SLC1A5 / RFU, SLMO2 / Fold change vs veh, SLMO2 / RFU, ABCC4 / Fold change vs veh, ABCC4 / RFU, LOC101060439 /// RAP1B / Fold change vs veh, LOC101060439 /// RAP1B / RFU, RFX7 / Fold change vs veh, RFX7 / RFU, GTPBP10 / Fold change vs veh, GTPBP10 / RFU, CNEP1R1 / Fold change vs veh, CNEP1R1 / RFU, BIVM-ERCC5 /// ERCC5 / Fold change vs veh, BIVM-ERCC5 /// ERCC5 / RFU, ILF3 / Fold change vs veh, ILF3 / RFU 11762660_at / Fold change /veh 11762660_at / RFU VCAN (11757783_s_at) / Fold change /veh VCAN (11757783_s_at) / RFU DDX43 (11728927_at) / Fold change /veh DDX43 (11728927_at) / RFU KRT8 (11758188_x_at) / Fold change /veh KRT8 (11758188_x_at) / RFU NKD1 (11759106_at) / Fold change /veh NKD1 (11759106_at) / RFU SRD5A1 (11742802_a_at) / Fold change /veh SRD5A1 (11742802_a_at) / RFU TPSAB1 /// TPSB2 (11721975_s_at) / Fold change /veh TPSAB1 /// TPSB2 (11721975_s_at) / RFU GSTM3 (11746129_a_at) / Fold change /veh GSTM3 (11746129_a_at) / RFU IL23R (11737362_x_at) / Fold change /veh IL23R (11737362_x_at) / RFU TMEM51 (11727254_a_at) / Fold change /veh TMEM51 (11727254_a_at) / RFU PIWIL2 (11732686_x_at) / Fold change /veh PIWIL2 (11732686_x_at) / RFU ORM1 (11744905_x_at) / Fold change /veh ORM1 (11744905_x_at) / RFU CCDC152 (11743942_at) / Fold change /veh CCDC152 (11743942_at) / RFU ECM1 (11717891_a_at) / Fold change /veh ECM1 (11717891_a_at) / RFU IL23R (11748794_a_at) / Fold change /veh IL23R (11748794_a_at) / RFU TNFAIP8L3 (11732012_x_at) / Fold change /veh TNFAIP8L3 (11732012_x_at) / RFU MBOAT4 (11741988_at) / Fold change /veh MBOAT4 (11741988_at) / RFU 11764193_at / Fold change /veh 11764193_at / RFU TMEM53 (11763286_at) / Fold change /veh TMEM53 (11763286_at) / RFU MAGEB2 (11727129_at) / Fold change /veh MAGEB2 (11727129_at) / RFU TMEM200A (11744735_a_at) / Fold change /veh TMEM200A (11744735_a_at) / RFU CCDC152 (11751479_a_at) / Fold change /veh CCDC152 (11751479_a_at) / RFU FAM211A (11726209_a_at) / Fold change /veh FAM211A (11726209_a_at) / RFU RGS16 (11746705_a_at) / Fold change /veh RGS16 (11746705_a_at) / RFU VCAN (11755009_s_at) / Fold change /veh VCAN (11755009_s_at) / RFU RHOB (11743442_s_at) / Fold change /veh RHOB (11743442_s_at) / RFU RGS16 (11720943_a_at) / Fold change /veh RGS16 (11720943_a_at) / RFU RGS16 (11720944_at) / Fold change /veh RGS16 (11720944_at) / RFU, VPS4B / Fold change vs veh, VPS4B / RFU, CREB1 / Fold change vs veh, CREB1 / RFU, DNAJC13 / Fold change vs veh, DNAJC13 / RFU, GNAQ / Fold change vs veh, GNAQ / RFU, CDK5R1 / Fold change vs veh, CDK5R1 / RFU, ZRANB3 / Fold change vs veh, ZRANB3 / RFU, CUL4A / Fold change vs veh, CUL4A / RFU, CCNY / Fold change vs veh, CCNY / RFU, UFL1 / Fold change vs veh, UFL1 / RFU, COG3 / Fold change vs veh, COG3 / RFU, DIAPH2 / Fold change vs veh, DIAPH2 / RFU, SKA2 / Fold change vs veh, SKA2 / RFU, AFF3 / Fold change vs veh, AFF3 / RFU, LMF1 / Fold change vs veh, LMF1 / RFU, IPO11 / Fold change vs veh, IPO11 / RFU, DFFB / Fold change vs veh, DFFB / RFU, FOXP1 / Fold change vs veh, FOXP1 / RFU, CARD8 / Fold change vs veh, CARD8 / RFU, STRN3 / Fold change vs veh, STRN3 / RFU, ADK / Fold change vs veh, ADK / RFU, RASSF2 / Fold change vs veh, RASSF2 / RFU, WIPF1 / Fold change vs veh, WIPF1 / RFU, LARP1B / Fold change vs veh, LARP1B / RFU, RASA1 / Fold change vs veh, RASA1 / RFU, RB1 / Fold change vs veh, RB1 / RFU, PPFIA1 / Fold change vs veh, PPFIA1 / RFU, MAT2A / Fold change vs veh, MAT2A / RFU, CCT5 / Fold change vs veh, CCT5 / RFU, WDR92 / Fold change vs veh, WDR92 / RFU, CUX1 / Fold change vs veh, CUX1 / RFU, TTC7A / Fold change vs veh, TTC7A / RFU, TMEM135 / Fold change vs veh, TMEM135 / RFU, DEPTOR / Fold change vs veh, DEPTOR / RFU, CPM / Fold change vs veh, CPM / RFU, DNAJB6 / Fold change vs veh, DNAJB6 / RFU, CACNA2D3 / Fold change vs veh, CACNA2D3 / RFU, DTX4 / Fold change vs veh, DTX4 / RFU, TFCP2 / Fold change vs veh, TFCP2 / RFU, GMCL1 /// GMCL1P1 / Fold change vs veh, GMCL1 /// GMCL1P1 / RFU, AEBP2 / Fold change vs veh, AEBP2 / RFU, SNHG1 /// SNORD22 /// SNORD25 /// SNORD26 /// SNORD27 /// SNORD28 /// SNORD29 /// SNORD31 / Fold change vs veh, SNHG1 /// SNORD22 /// SNORD25 /// SNORD26 /// SNORD27 /// SNORD28 /// SNORD29 /// SNORD31 / Fold change (Aza/veh), C12orf56 (ProbeSet 11735607_a_at) / Fold change (ACY-1035/veh), C12orf56 (ProbeSet 11735607_a_at) / Fold change (Aza/veh), FGFR1OP (ProbeSet 11751329_s_at) / Fold change (ACY-1035/veh), FGFR1OP (ProbeSet 11751329_s_at) / Fold change (Aza/veh), VPS36 (ProbeSet 11739960_a_at) / Fold change (ACY-1035/veh), VPS36 (ProbeSet 11739960_a_at) / RFU SYPL1 (11715823_x_at) / Fold change /veh SYPL1 (11715823_x_at) / RFU IGFBP7 (11715501_s_at) / Fold change /veh IGFBP7 (11715501_s_at) / RFU REEP3 (11722064_at) / Fold change /veh REEP3 (11722064_at) / RFU IGLL1 (11728026_x_at) / Fold change /veh IGLL1 (11728026_x_at): dose or concentration left out as unconfirmed
Conditions: MV-4-11 cells, 48 hours

Nc1ccc(-c2cccs2)cc1NC(=O)c1ccc2c(c1)cc(C1CC1)n2CCN1CCOCC1 [ACY-1035]
Fold change /veh FIZ1 (11724087_x_at): 1.06
